Data: the kinase profiling compilation of Christmann-Franck et al. (2016)

Key:
Experiment in all cases: radiometric filter-binding kinase assay, Kinase HotSpot
Settings in all cases: compound 0.5 µM; ATP 10 µM
TSSK2 (human) = TSSK2 (human) (UniProt Q96PF2)
ZAP70 (human) = ZAP70 (human) (UniProt P43403)
MARK4 (human) = MARK4 (human) (UniProt Q96L34)
PLK3 (human) = PLK3 (human) (UniProt Q9H4B4)
DYRK4 (human) = DYRK4 (human) (UniProt Q9NR20)
PRKX (human) = PRKX (human) (UniProt P51817)
RPS6KA5 KD2 (human) = RPS6KA5 KD2 (human) (UniProt O75582)
TGFBR1 (human) = TGFBR1 (human) (UniProt P36897)
MST4 (human) = MST4 (human) (UniProt Q9P289)
RIPK2 (human) = RIPK2 (human) (UniProt O43353)
PRKCD (human) = PRKCD (human) (UniProt Q05655)
MAP3K2 (human) = MAP3K2 (human) (UniProt Q9Y2U5)
MAPKAPK5 (human) = MAPKAPK5 (human) (UniProt Q8IW41)
MAP4K5 (human) = MAP4K5 (human) (UniProt Q9Y4K4)
LIMK1 (human) = LIMK1 (human) (UniProt P53667)
RPS6KA6 KD1 KD2 (human) = RPS6KA6 KD1 KD2 (human) (UniProt Q9UK32)
CDC42BPB (human) = CDC42BPB (human) (UniProt Q9Y5S2)
MINK1 (human) = MINK1 (human) (UniProt Q8N4C8)
PTK2 (human) = PTK2 (human) (UniProt Q05397)
FRK (human) = FRK (human) (UniProt P42685)
PDGFRB (human) = PDGFRB (human) (UniProt P09619)
MAPK13 (human) = MAPK13 (human) (UniProt O15264)
AURKC (human) = AURKC (human) (UniProt Q9UQB9)
PAK2 (human) = PAK2 (human) (UniProt Q13177)
MAP3K3 (human) = MAP3K3 (human) (UniProt Q99759)
PDPK1 (human) = PDPK1 (human) (UniProt O15530)
LCK (human) = LCK (human) (UniProt P06239)
PRKCZ (human) = PRKCZ (human) (UniProt Q05513)
MERTK (human) = MERTK (human) (UniProt Q12866)
TAOK2 (human) = TAOK2 (human) (UniProt Q9UL54)
TXK (human) = TXK (human) (UniProt P42681)
IKBKB (human) = IKBKB (human) (UniProt O14920)

Chain of PDGFRB (human) (P09619 whole entry, looked up): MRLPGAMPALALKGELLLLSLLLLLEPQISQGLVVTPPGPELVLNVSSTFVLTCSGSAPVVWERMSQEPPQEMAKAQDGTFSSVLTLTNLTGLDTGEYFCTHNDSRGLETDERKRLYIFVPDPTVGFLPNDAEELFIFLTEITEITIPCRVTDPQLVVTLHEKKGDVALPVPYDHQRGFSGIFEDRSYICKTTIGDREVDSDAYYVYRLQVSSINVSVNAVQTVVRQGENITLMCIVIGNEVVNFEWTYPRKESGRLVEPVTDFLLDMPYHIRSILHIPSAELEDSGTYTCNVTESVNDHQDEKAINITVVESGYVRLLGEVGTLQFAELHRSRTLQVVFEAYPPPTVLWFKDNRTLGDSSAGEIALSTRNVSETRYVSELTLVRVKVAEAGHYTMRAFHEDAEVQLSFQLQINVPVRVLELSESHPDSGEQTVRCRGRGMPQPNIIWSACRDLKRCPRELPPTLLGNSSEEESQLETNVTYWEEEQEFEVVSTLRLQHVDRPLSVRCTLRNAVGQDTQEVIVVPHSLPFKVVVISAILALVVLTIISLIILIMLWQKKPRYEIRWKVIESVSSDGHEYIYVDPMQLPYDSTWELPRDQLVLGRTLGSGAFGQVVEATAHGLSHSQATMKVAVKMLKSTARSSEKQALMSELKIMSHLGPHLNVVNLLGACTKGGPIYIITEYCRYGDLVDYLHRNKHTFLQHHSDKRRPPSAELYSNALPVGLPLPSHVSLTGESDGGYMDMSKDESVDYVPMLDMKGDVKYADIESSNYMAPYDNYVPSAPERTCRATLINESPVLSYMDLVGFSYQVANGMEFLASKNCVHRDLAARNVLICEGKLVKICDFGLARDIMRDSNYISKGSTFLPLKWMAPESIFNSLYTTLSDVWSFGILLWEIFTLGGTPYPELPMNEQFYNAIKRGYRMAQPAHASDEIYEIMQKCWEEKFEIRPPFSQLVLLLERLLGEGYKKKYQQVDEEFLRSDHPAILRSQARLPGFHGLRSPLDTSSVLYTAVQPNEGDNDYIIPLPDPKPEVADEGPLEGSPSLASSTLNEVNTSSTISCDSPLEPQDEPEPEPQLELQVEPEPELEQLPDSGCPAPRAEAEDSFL
Chain of TGFBR1 (human) (P36897 whole entry, looked up): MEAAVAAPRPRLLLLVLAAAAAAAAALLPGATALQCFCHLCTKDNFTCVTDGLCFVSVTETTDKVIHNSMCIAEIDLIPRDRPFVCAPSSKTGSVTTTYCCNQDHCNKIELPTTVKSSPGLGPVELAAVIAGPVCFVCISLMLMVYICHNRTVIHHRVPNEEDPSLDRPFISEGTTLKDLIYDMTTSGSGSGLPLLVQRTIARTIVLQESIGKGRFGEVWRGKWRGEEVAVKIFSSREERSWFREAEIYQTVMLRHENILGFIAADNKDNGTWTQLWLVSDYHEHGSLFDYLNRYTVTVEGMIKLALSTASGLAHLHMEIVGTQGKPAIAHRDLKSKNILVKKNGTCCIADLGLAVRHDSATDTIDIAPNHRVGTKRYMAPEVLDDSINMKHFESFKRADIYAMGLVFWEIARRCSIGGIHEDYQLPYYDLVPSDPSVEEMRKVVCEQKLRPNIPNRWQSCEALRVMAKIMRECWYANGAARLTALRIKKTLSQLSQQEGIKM
Chain of TAOK2 (human) (Q9UL54 whole entry, looked up): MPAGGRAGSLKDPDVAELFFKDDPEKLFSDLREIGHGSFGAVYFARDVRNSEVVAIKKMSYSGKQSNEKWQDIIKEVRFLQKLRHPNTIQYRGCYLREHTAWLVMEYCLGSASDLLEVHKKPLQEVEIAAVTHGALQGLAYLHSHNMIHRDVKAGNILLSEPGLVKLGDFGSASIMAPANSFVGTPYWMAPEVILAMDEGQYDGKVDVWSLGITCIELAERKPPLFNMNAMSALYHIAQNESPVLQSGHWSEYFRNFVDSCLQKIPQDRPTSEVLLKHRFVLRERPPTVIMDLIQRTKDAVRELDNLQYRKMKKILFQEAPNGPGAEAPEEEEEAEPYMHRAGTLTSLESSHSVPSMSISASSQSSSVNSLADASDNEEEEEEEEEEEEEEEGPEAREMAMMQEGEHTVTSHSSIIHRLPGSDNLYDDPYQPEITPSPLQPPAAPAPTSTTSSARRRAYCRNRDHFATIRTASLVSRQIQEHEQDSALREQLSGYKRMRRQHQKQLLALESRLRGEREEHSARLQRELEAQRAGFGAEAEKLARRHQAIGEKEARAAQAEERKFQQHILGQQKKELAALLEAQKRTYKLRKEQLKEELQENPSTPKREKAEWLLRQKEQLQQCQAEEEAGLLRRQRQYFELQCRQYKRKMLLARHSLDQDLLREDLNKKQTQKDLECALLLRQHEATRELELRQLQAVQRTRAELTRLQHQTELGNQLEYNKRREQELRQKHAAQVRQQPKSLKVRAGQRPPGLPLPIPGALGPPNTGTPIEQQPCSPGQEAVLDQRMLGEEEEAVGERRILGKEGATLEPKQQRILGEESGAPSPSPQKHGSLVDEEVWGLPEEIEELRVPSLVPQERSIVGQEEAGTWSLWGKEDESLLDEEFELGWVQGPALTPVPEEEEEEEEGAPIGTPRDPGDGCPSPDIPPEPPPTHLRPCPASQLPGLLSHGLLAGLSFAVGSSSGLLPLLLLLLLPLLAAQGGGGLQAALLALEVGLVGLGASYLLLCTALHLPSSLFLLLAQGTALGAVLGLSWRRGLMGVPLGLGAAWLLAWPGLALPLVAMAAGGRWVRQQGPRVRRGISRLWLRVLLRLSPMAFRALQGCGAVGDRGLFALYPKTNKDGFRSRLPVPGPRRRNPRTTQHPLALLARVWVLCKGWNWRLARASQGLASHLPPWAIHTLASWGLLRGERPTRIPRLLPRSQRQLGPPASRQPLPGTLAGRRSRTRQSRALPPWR
Chain of CDC42BPB (human) (Q9Y5S2 whole entry, looked up): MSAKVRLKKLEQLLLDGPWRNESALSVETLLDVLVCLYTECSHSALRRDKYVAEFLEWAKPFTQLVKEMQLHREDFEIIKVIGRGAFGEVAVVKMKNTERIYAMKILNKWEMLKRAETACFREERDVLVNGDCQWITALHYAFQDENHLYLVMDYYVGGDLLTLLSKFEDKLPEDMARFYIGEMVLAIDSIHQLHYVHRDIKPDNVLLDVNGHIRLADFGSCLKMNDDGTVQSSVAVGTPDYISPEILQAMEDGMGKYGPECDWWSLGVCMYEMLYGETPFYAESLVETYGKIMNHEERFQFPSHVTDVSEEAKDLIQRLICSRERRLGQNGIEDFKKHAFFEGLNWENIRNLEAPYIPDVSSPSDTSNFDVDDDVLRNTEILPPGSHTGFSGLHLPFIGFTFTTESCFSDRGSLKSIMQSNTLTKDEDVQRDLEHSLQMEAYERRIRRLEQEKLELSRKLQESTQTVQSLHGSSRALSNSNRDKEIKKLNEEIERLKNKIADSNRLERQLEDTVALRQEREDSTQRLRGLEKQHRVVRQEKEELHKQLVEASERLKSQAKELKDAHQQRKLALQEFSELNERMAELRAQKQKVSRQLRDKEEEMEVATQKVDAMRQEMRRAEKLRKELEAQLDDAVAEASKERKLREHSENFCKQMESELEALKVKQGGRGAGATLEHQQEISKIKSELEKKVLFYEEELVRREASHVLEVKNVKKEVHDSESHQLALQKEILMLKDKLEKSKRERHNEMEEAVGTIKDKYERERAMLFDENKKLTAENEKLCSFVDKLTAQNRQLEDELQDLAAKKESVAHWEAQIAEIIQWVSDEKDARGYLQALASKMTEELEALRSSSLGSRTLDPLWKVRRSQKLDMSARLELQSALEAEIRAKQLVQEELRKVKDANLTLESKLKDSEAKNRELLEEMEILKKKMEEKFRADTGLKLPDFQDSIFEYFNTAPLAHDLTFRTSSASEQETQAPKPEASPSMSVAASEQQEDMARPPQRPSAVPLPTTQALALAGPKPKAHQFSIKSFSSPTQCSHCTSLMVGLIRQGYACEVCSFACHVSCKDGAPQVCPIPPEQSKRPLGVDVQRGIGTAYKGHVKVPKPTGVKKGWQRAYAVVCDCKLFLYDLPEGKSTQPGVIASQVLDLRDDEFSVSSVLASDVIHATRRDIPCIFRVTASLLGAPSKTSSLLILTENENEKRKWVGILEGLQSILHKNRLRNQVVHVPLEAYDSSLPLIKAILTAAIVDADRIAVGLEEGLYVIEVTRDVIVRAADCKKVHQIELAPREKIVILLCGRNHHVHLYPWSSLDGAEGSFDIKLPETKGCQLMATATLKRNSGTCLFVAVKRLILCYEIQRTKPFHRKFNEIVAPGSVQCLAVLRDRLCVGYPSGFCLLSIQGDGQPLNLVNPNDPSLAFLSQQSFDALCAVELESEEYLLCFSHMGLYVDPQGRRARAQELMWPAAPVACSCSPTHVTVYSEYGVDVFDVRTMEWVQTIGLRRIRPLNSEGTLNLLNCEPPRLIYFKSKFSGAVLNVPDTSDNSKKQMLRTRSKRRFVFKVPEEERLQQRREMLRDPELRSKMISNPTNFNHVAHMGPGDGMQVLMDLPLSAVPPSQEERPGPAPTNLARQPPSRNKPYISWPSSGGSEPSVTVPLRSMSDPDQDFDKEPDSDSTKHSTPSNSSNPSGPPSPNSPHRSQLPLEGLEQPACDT
Chain of TSSK2 (human) (Q96PF2 whole entry, looked up): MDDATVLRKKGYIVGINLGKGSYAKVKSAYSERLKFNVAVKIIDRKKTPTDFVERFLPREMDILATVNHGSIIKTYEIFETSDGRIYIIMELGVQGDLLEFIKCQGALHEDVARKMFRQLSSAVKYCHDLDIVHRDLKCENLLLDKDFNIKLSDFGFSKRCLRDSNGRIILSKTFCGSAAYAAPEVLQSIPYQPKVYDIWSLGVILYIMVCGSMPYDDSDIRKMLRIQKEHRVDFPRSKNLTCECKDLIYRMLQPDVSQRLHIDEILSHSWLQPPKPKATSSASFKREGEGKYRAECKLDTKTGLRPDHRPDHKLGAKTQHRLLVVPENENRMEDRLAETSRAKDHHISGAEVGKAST

CO[C@@H]1[C@H](N(C)C(=O)c2ccccc2)C[C@H]2O[C@]1(C)n1c3ccccc3c3c4c(c5c6ccccc6n2c5c31)C(=O)NC4
residual activity (TSSK2 (human)): 89.1%
residual activity (ZAP70 (human)): 65.4%
residual activity (MARK4 (human)): 3.16%
residual activity (PLK3 (human)): 95.3%
residual activity (DYRK4 (human)): 96.4%
residual activity (PRKX (human)): 55.4%
residual activity (RPS6KA5 KD2 (human)): 13.2%
residual activity (TGFBR1 (human)): 98.7%
residual activity (MST4 (human)): 23.8%
residual activity (RIPK2 (human)): 82.8%
residual activity (PRKCD (human)): 10.9%
residual activity (MAP3K2 (human)): 30.2%
residual activity (MAPKAPK5 (human)): 92%
residual activity (MAP4K5 (human)): 7.01%
residual activity (LIMK1 (human)): 19.6%
residual activity (RPS6KA6 KD1 KD2 (human)): 1.15%
residual activity (CDC42BPB (human)): 95.9%
residual activity (MINK1 (human)): 29.2%
residual activity (PTK2 (human)): 87.4%
residual activity (FRK (human)): 65.8%
residual activity (PDGFRB (human)): 14.8%
residual activity (MAPK13 (human)): 104%
residual activity (AURKC (human)): 12%
residual activity (PAK2 (human)): 66.6%
residual activity (MAP3K3 (human)): 31%
residual activity (PDPK1 (human)): 21.8%
residual activity (LCK (human)): 19.8%
residual activity (PRKCZ (human)): 98.6%
residual activity (MERTK (human)): 78.7%
residual activity (TAOK2 (human)): 86.2%
residual activity (TXK (human)): 71.7%
residual activity (IKBKB (human)): 97.9%
